The results in this text go back to paper PMC6661812, “Synthesis, biological activity and molecular docking of new tricyclic series as α-glucosidase inhibitors” (BMC Chemistry, 2019).

In series [1] the target is α-glucosidase enzyme type 1 from Baker’s yeast (Saccharomyces cerevisiae, UniProt P53341). The series is described as follows: α-Glucosidase inhibitory assay (p-NPG substrate, absorbance at 405 nm). The series is classed as biochemical. Conditions: for inhibition at 100 µg/mL: 100 µg/mL of each compound, test repeated three times, read-out: average percent inhibition of α-glucosidase; for IC50: mean of three experiments ± SEM, more than five concentrations. As to the method: Phosphate-buffered saline pH 6.5 was prepared at 20 °C by dissolving sodium phosphate monobasic (1.4 g), sodium chloride (8 g), potassium chloride (0.2 g) and potassium dihydrogen phosphate (0.2 g) in deionized water (1 L). The solution was adjusted to pH 6.5 at 20 °C with 1 M sodium hydroxide (NaOH) or hydrochloric acid (HCl). A 20-mM solution of para-nitrophenyl-α-D-glucopyranoside (p-NPG substrate) was prepared by dissolving […] of p-NPG in 10 mL of buffer solution. The α-glucosidase enzyme solution was prepared by dissolving α-glucosidase enzyme type 1 from Baker’s yeast (1 mg) in cold phosphate-buffered saline (1000 µL), pH 6.5; 50 µL of this solution was mixed into 12 mL of cold phosphate-buffered saline to give a concentration of 0.125 unit/mL. For the screening of samples, 200 µg/mL concentration was prepared in 100% dimethyl sulfoxide (DMSO). Then, two-fold serial dilutions with 5% DMSO were prepared in a 96-well microplate to give final concentrations of 100, 50, 25, 12.5, 6.25, 3.13 and 1.56 µg/mL. […]
A volume of 10 µL of 5% DMSO was added to the 96 wells of the microplate. Then, 10 µL of the stock sample was added to the first well and mixed. Subsequently, 10 µL of the sample from the first well was taken and added to the second well and this procedure was repeated for the two-fold serial dilutions. Next, 20 µL of the α-glucosidase enzyme, 40 µL of phosphate buffered saline at pH 6.5 and 20 µL of deionized water were added to each well in the 96-well microtiter plate and mixed. The mixture was pre-incubated at 37 °C for 10 min. Then, 10 µL of 20 mM p-NPG solution was added to the mixture and the absorbance at 0 min. was measured at 405 nm. The reaction was incubated for 30 min. at 37 °C and the absorbance was then measured. […] Experiments were performed in triplicate. The inhibition activity of α-glucosidase was determined based on the described method by Ahmad et al.. The percent inhibition (%) of α-glucosidase inhibitory activity was calculated using the equation: %inhibition=A30min-A0mincontrol-A30min-A0minexp/A30min-A0mincontrol×100\%
IC50 values are the mean values of three experiments represented as SEM (n = 3). […] Statistical analysis using one-way ANOVA was applied to the results. Nonlinear regression analysis using a four-parameter logistic curve was performed to calculate the IC50 values. The statistical software used were Microsoft Excel 2010 and Sigma Plot (version 14.0 Notebook, Systat Software Inc.).

Sequence of α-glucosidase enzyme type 1 from Baker’s yeast (P53341 whole entry): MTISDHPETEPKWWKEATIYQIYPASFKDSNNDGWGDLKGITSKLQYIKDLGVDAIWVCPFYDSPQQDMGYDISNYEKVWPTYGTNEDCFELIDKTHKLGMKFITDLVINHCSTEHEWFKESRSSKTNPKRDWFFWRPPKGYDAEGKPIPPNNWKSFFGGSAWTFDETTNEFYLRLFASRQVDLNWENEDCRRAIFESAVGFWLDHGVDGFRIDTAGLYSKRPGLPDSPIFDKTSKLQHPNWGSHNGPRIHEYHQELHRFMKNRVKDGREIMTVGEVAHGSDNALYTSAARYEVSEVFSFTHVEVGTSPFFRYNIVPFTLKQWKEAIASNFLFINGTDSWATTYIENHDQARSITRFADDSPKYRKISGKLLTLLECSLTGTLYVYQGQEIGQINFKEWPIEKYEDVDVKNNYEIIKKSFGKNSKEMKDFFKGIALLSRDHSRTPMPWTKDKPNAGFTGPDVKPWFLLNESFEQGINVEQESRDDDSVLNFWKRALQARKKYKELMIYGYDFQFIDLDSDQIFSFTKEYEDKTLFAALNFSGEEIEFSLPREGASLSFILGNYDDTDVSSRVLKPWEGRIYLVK

Take `CCOc1ccc(Nc2nc3nc(Oc4ccccc4)nn3c3ncccc23)cc1` [Compound 6d, N-(4-Ethoxyphenyl)-2-phenoxypyrido[3,2-e][1,2,4]triazolo[1,5-a]pyrimidin-5-amine]: the melting point (as a rule, the temperature of the solid-liquid transition) fell in the range of 154 to 156 °C. Moreover, in series [1], the inhibition – broadly, how much of the control response was suppressed – at 100 µg/mL was above 60% and the midpoint of inhibition, the IC50, lay at 139 µM.

Consider `O=C(NNc1nc2nc(Oc3ccccc3)nn2c2ncccc12)c1ccncc1` [Compound 6i, N’-(2-phenoxypyrido[3,2-e][1,2,4]triazolo[1,5-a]pyrimidin-5-yl)isonicotinohydrazide], for which the melting point fell in the range of 163 to 165 °C. For the compound `O=c1c2cccnc2n2nc(Oc3ccccc3)nc2n1Cc1ccc([N+](=O)[O-])cc1` [Compound 2h, 4-(4-Nitrobenzyl)-2-phenoxypyrido[3,2-e][1,2,4]triazolo[1,5-a]pyrimidin-5(4H)-one], the melting point fell in the range of 150 to 152 °C. In turn, `COc1cccc(Cn2c(=O)c3cccnc3n3nc(Oc4ccccc4)nc23)c1` [Compound 2f, 4-(3-Methoxybenzyl)-2-phenoxypyrido[3,2-e][1,2,4]triazolo[1,5-a]pyrimidin-5(4H)-one] yielded a melting point of 189 to 191 °C. For the compound `Cc1ccccc1Cn1c(=O)c2cccnc2n2nc(Oc3ccccc3)nc12` [Compound 2d, 4-(2-Methylbenzyl)-2-phenoxypyrido[3,2-e][1,2,4]triazolo[1,5-a]pyrimidin-5(4H)-one], the melting point fell in the range of 160 to 162 °C. In series [1], the inhibition at 100 µg/mL was above 50% and the IC50 (usually the concentration that gives 50% inhibition) turned out to be 174 µM.

As to `Cc1cccc(Cn2c(=O)c3cccnc3n3nc(Oc4ccccc4)nc23)c1` [Compound 2e, 4-(3-Methylbenzyl)-2-phenoxypyrido[3,2-e][1,2,4]triazolo[1,5-a]pyrimidin-5(4H)-one], the melting point was in the range of 181 to 183 °C. On the same count and under the same terms, in the case of `O=c1c2cccnc2n2nc(Oc3ccccc3)nc2n1Cc1ccc(Cl)cc1` [Compound 2i, 4-(4-Chlorobenzyl)-2-phenoxypyrido[3,2-e][1,2,4]triazolo[1,5-a]pyrimidin-5(4H)-one] it was 144 to 146 °C; in that of `Clc1nc2nc(Oc3ccccc3)nn2c2ncccc12` [Compound 5, 5-chloro-2-phenoxypyrido[3,2-e][1,2,4]triazolo[1,5-a]pyrimidine], 190 to 192 °C; in that of `O=c1[nH]c2nc(Oc3ccccc3)nn2c2ncccc12` [Compound 1, 2-phenoxypyrido[3,2-e][1,2,4]triazolo[1,5-a]pyrimidin-5(4H)-one], 252 to 254 °C.

As to `COc1ccc(Nc2nc3nc(Oc4ccccc4)nn3c3ncccc23)cc1` [Compound 6c, N-(4-Methoxyphenyl)-2-phenoxypyrido[3,2-e][1,2,4]triazolo[1,5-a]pyrimidin-5-amine], the melting point lay within 174 to 176 °C. In series [1], the inhibition at 100 µg/mL is above 60% and the half-maximal inhibitory concentration (IC50) is 177 µM. `COc1ccc(O)c(/C=N/Nc2nc3nc(Oc4ccccc4)nn3c3ncccc23)c1` [Compound 6g, (E)-4-Methoxy-2-((2-(2-phenoxypyrido[3,2-e][1,2,4]triazolo[1,5-a]pyrimidin-5-yl)hydrazono)methyl)phenol] came in with a melting point of 220 to 222 °C. Same read-out and setting: with `O=c1c2cccnc2n2nc(Oc3ccccc3)nc2n1CCN1CCCCC1` [Compound 2k, 2-Phenoxy-4-(2-(piperidin-1-yl)ethyl)pyrido[3,2-e][1,2,4]triazolo[1,5-a]pyrimidin-5(4H)-one] the figure was 200 to 202 °C; with `O=c1c2cccnc2n2nc(Oc3ccccc3)nc2n1Cc1ccccc1` [Compound 2c, 4-Benzyl-2-phenoxypyrido[3,2-e][1,2,4]triazolo[1,5-a]pyrimidin-5(4H)-one], 195 to 197 °C. Regarding `S=c1[nH]c2nc(Oc3ccccc3)nn2c2ncccc12` [Compound 3, 2-phenoxypyrido[3,2-e][1,2,4]triazolo[1,5-a]pyrimidine-5(4H)-thione], the melting point is 270 to 272 °C. Moreover, in series [1], the inhibition at 100 µg/mL is above 60% and 168 µM corresponded to half-maximal inhibition (IC50).

Take `CCn1c(=O)c2cccnc2n2nc(Oc3ccccc3)nc12` [Compound 2a, 4-Ethyl-2-phenoxypyrido[3,2-e][1,2,4]triazolo[1,5-a]pyrimidin-5(4H)-one]: the melting point was 173 to 175 °C. In series [1], the inhibition at 100 µg/mL was above 50% and the IC50 was 304 µM.

As to `c1ccc(Nc2nc3nc(Oc4ccccc4)nn3c3ncccc23)cc1` [Compound 6a, 2-Phenoxy-N-phenylpyrido[3,2-e][1,2,4]triazolo[1,5-a]pyrimidin-5-amine], the melting point was 251 to 253 °C. Besides, in series [1], the inhibition at 100 µg/mL is above 50% and the IC50 was 154 µM. The compound `ONc1nc2nc(Oc3ccccc3)nn2c2ncccc12` [Compound 6e, N-(2-phenoxypyrido[3,2-e][1,2,4]triazolo[1,5-a]pyrimidin-5-yl)hydroxylamine] yielded a melting point of 249 to 251 °C. The compound `NNc1nc2nc(Oc3ccccc3)nn2c2ncccc12` [Compound 6f, 5-hydrazinyl-2-phenoxypyrido[3,2-e][1,2,4]triazolo[1,5-a]pyrimidine] yielded a melting point of 241 to 243 °C.

In turn, `COc1ccccc1/C=N/Nc1nc2nc(Oc3ccccc3)nn2c2ncccc12` [Compound 6h, (E)-5-(2-(2-Methoxybenzylidene)hydrazinyl)-2-phenoxypyrido[3,2-e][1,2,4]triazolo[1,5-a]pyrimidine] had a melting point of 111 to 113 °C. In series [1], the inhibition at 100 µg/mL is above 50% and the concentration for half-maximal inhibition (IC50) was 104 µM. Turning to `C=CCn1c(=O)c2cccnc2n2nc(Oc3ccccc3)nc12` [Compound 2b, 4-Allyl-2-phenoxypyrido[3,2-e][1,2,4]triazolo[1,5-a]pyrimidin-5(4H)-one], the melting point fell in the range of 170 to 172 °C. Regarding `COc1cccc(CSc2nc3nc(Oc4ccccc4)nn3c3ncccc23)c1` [Compound 4, 5-((3-methoxybenzyl)thio)-2-phenoxypyrido[3,2-e][1,2,4]triazolo[1,5-a]pyrimidine], the melting point fell in the range of 149 to 151 °C. Consider `Cc1ccc(Nc2nc3nc(Oc4ccccc4)nn3c3ncccc23)cc1` [Compound 6b, 2-Phenoxy-N-(p-tolyl)pyrido[3,2-e][1,2,4]triazolo[1,5-a]pyrimidin-5-amine], for which the melting point was 162 to 164 °C. In addition, in series [1], the inhibition at 100 µg/mL was above 50% and the IC50 came to 207 µM. The compound `O=c1c2cccnc2n2nc(Oc3ccccc3)nc2n1CCN1CCOCC1` [Compound 2j, 4-(2-Morpholinoethyl)-2-phenoxypyrido[3,2-e][1,2,4]triazolo[1,5-a]pyrimidin-5(4H)-one] gave a melting point of 169 to 171 °C.
